The results in this text go back to publication PMC5089669, “Biocatalytic Properties and Structural Analysis of Eugenol Oxidase from Rhodococcus jostii RHA1: A Versatile Oxidative Biocatalyst” (Chembiochem, 2016).

In assay [1] the target is T1, Eugenol oxidase (EUGO) (Rhodococcus jostii, UniProt Q0SBK1).
T1 construct: gene RHA1_ro03282; homodimer
T1 sequence (Q0SBK1 1-526): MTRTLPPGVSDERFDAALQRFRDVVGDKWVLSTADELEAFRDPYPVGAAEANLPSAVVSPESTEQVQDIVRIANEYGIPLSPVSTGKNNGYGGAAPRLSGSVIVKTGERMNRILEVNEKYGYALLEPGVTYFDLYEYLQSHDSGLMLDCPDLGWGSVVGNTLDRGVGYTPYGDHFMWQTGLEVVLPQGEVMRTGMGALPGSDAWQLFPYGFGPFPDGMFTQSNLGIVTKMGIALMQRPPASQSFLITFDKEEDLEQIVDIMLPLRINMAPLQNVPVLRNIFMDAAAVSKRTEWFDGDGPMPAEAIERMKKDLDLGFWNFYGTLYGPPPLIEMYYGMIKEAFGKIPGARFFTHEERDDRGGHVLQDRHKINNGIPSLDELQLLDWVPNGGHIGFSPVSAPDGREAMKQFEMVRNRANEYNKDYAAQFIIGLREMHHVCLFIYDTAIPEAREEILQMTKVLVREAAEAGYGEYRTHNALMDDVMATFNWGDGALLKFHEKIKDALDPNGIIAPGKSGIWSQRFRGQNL
The assay can be described thus: crystal structure of unsoaked native crystals. In kind it is binding. Conditions: weak inhibitor; density tentatively assigned, co-purified; active site Tyr-Tyr-Arg.

Assay [2] concerns the target T1, Eugenol oxidase (EUGO). As to the kind of experiment: crystal structure. In kind it is binding. Conditions: covalent; His390 to C8M of flavin.

For the molecule `O=C(O)c1ccccc1` [benzoate], the “crystal structure of unsoaked native crystals” value at Eugenol oxidase (EUGO) [1] is “we found benzoate to be a weak EUGO inhibitor”. `Cc1cc2nc3c(=O)[nH]c(=O)nc-3n(C[C@H](O)[C@H](O)[C@H](O)COP(=O)(O)OP(=O)(O)OC[C@H]3O[C@@H](n4cnc5c(N)ncnc54)[C@H](O)[C@@H]3O)c2cc1C` [FAD]: the crystal structure result at Eugenol oxidase (EUGO) [2] is “covalent bond between His390 (equivalent to His422 of VAO) and the C8M atom”.
